Measurements: US6201147A, “Process for the resolution of esters of arylalkylcarboxylic acids” (BASF Aktiengesellschaft, priority 1998, dated 2001)

Experiments:
[1] = target: T1, Candida antarctica lipase (CAL-B, Chirazyme L-2) (Moesziomyces antarcticus, UniProt P41365); test: Lipase-catalyzed transesterification with n-hexanol in toluene; assay type: biochemical; details: for equilibrium constant (value in brackets): transesterification of ethyl esters with n-hexanol, calculated according to Anthonsen et al.
T1 construct: purchased Boehringer Mannheim, Penzberg, Germany
T1 sequence (P41365 26-342): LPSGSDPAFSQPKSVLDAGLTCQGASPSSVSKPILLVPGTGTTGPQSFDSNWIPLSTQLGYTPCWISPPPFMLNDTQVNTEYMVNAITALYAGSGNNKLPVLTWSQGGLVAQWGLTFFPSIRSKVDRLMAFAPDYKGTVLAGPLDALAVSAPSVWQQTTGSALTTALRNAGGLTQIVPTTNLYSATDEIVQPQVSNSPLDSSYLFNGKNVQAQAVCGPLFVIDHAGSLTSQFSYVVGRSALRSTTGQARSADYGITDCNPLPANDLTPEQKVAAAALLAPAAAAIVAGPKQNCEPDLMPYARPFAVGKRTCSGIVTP
Procedure: (§1) If not described otherwise, the ^1 H-NMR spectra were recorded at 250.1 and 500.1 MHz and the ^13 C-NMR spectra at 62.9 and 125.7 MHz in CDCl3 using tetramethylsilane as an internal standard. In cases in which both the racemate and the enatiomeric pure compounds were synthesized, the racemate was used for the full characterization of the compound. […] The gas-chromatography (=GC) analyses were carried out with an Optima 5 column (25 m×0.25 mm; Macherey & Nagel, Duren, Germany) for the determination of the conversion and purity and with a heptakis-(2,3-di-O-acetyl-6-O-TBDMS) -β-cyclodextrin column (25 m×0.25 mm, Prof. W. A. Konig, University of Hamburg, Germany) for the determination of the enantiomeric excess. The immobilized lipase used was Candida antarctica lipase (Chirazyme L-2, c.-f., C2, 5000 U/g) from Boehringer Mannheim, Penzberg, Germany, if not described otherwise. The absolute configuration of the biotransformation products was determined by means of comparison with optically pure standards, which were prepared from the commercially obtainable optically pure carboxylic acids. The enantiomeric excess was calculated by comparison with literature values. The enantioselectivity was determined using the formula E=[ln{(1-c)×(1-ees)}]/[ln{(1-c)×(1+ees)}],
Lipase-catalyzed transesterification: 100 μl of the vinyl esters (0.52 mmol) and 560 μl of n-hexanol (4.49 mmol) were […] stirrer. The reaction was started by addition of 100 mg of CAL-B lipase (500 U) (see Scheme II). Samples were taken from the reaction, diluted with toluene and the lipase was removed by means of centrifugation. The samples were analyzed by GC using the Optima 5 column. After ending the reaction by filtration, product and unreacted substrate were purified by flash chromatography. The enantiomeric purities were determined by means of the specific rotation. In the case of the substrates (±)-3, (±) -4 and (±) -6, the optical purity was additionally determined by means of chiral GC. The ethyl esters were correspondingly reacted as a comparison experiment (see Scheme III). The hydrolysis of the ethyl esters was carried out as a further comparison experiment (see Scheme III).

[2] = target: T1, Candida antarctica lipase (CAL-B, Chirazyme L-2); test: Hydrolysis of the ethyl esters with pH-statting; assay type: biochemical; details: hydrolysis in phosphate buffer 50 mM, pH 7.5, 40° C., calculated according to Chen et al.
Procedure: as §1
The hydrolysis of the ethyl esters was carried out with pH-statting. In general, 1 mmol of substrate (6-8) was taken up at 40° C. in 20 ml of phosphate buffer (50 mM, pH 7.5). 200 mg of CAL-B (1000 U) were added at the start of the reaction. The pH was kept constant through the reaction using 0.1 N NaOH. After consumption of base indicated a marked conversion of the substrate, unused substrate was removed by means of extraction with heptane. […] The organic phases were dried using Na2 SO4 and the enantiomeric excess was determined for all compounds by means of the specific rotation and for (±)-6 additionally by means of chiral GC.

lipase CAL-B = target: T2, lipase CAL-B (Moesziomyces antarcticus, UniProt P41365); test: Lipase-catalyzed transesterification with methanol in toluene; assay type: biochemical, Candida antarctica; details: 40° C., 5 hours, calculated from conversion and eep
T2 construct: purchased Boehringer Mannheim
T2 sequence (P41365 26-342): T1 sequence (P41365 26-342)
Procedure: The racemic ibuprofen vinyl ester (209 mg, 0.90 mmol) and methanol (240 mg, 7.5 mmol) were disolved in 8 ml toluene and stirred at 40° C. The reaction was started by adding 416 mg of lipase CAL-B (L-2, c.f., C2, lyo.; Boehringer Mannheim). After 5 hours, the reaction was completed by filtering off the lipase, and the reaction mixture was analyzed by gas chromatography in a chiral column (2,3 di-O-methyl-6-O-pentyl-ε-cyclodextrin). The product and unreacted substrate were purified by flash chromatography on silica gel (developer: ligroin/diethyl ether 35:1). Conversion (GC): 40.5%; Yields: ibuprofen methyl ester 64 mg (0.29 mmol; 32%), eep =76% (GC); ibuprofen vinyl ester 98 mg (0.42 mmol, 47%), ees =[…] (calculated from conversion and eep). An E value of 12 is calculated from conversion and eep.

[3] = transesterification with n-hexanol in toluene, 40° C., CAL-B, calculated according to Chen et al.

C=COC(=O)C(CC)c1ccccc1 (racemic) [(±)-3, Vinyl (±)-2-phenylbutyrate]
E (enantioselectivity) [1, 3]: > 100

C=COC(=O)C(C)c1ccccc1 (racemic) [(±)-4, Vinyl (±)-2-phenylpropionate]
E (enantioselectivity) [1, 3]: 26

C=COC(=O)CC(C)c1ccccc1 (racemic) [(±)-5, Vinyl (±)-3-phenylbutyrate]
E (enantioselectivity) ([1]; transesterification with n-hexanol in toluene at room temperature (about 23° C.)): 23
E (enantioselectivity) [1, 3]: 13

CCOC(=O)C(CC)c1ccccc1 (racemic) [(±)-6, Ethyl (±)-2-phenylbutyrate]
equilibrium constant (value in brackets) ([1]; 40° C.): 110
E (enantioselectivity) [1, 3]: 5.7
E (enantioselectivity) [2]: 3.7

CCOC(=O)C(C)c1ccccc1 (racemic) [(±)-7, Ethyl (±)-2-phenylpropionate]
equilibrium constant (value in brackets) ([1]; 40° C.): 123
E (enantioselectivity) [1, 3]: 6.8
E (enantioselectivity) [2]: 3.5

CCOC(=O)CC(C)c1ccccc1 (racemic) [(±)-8, Ethyl (±) -3-phenylbutyrate]
equilibrium constant (value in brackets) ([1]; 40° C.): 135
E (enantioselectivity) [1, 3]: 4.9
E (enantioselectivity) [2]: 9

C=COC(=O)C(C)c1ccc(CC(C)C)cc1 (racemic) [ibuprofen vinyl ester]
E value (lipase CAL-B): 12
